Data taken from patent publication US20230226198A1, “Artemisinin Derivatives” (DA ZEN THERANOSTICS, INC., priority 2019, published 2023).
Entries after “also recorded” stand apart in the source; their conditions may differ.

Tests used:
C4-2 MDVR cells = test: JC-1 staining, mitochondrial membrane potential by flow cytometry; type: cell-based, human; conditions: 5 uM, 16 h
Procedure: Example 5D: JC-1 staining and measuring JC-1 fluorescence is performed by flow cytometry to detect the ratio of green and red fluorescence. C4-2 MDVR cells are treated with vehicle (negative control), DHA (5 uM), and DZ-003 (5 uM) for 16 h, followed by JC-1 staining (2 uM) at 37° C. for 30 min, to determine the mitochondrial membrane potential by flow cytometry where JC-1 remains as a monomer in the cytosol that emits green fluorescence as an indication of depolarized membrane potential, and JC-1 forms aggregates in intact mitochondria that emits red fluorescence. […] Preliminary experiments indicate that the THAD as described herein may provide a similar or increased effect.

[1] = tested on: mitochondria and lysosomes of C4-2B MDVR cells; test: Confocal microscopy of Mitotracker/Lysotracker staining (subcellular localization); type: cell-based, human
Procedure: Subcellular localization (mitochondria, lysosomes) may be performed as follows: Uptake of DZ3a, THAD, controls or other dyes into mitochondria and lysosomes of cancer cells is determined by virtue of each compound constituting a dye or comprising a dye moiety. Cells are plated on live-cell imaging chambers (World Precision Instrument) overnight. Cells are exposed to the dyes at different concentrations, and dye uptake is evaluated by a Perkin-Elmer Ultraview ERS spinning disc confocal microscope mounted on a Zeiss Axiovert 200 m inverted microscope equipped with a 37° C. stage warmer, incubator, and constant CO2 perfusion. A 60× or 100× Zeiss oil objective (numerical aperture, 1.4) is used for live cell images, and a Z-stack is created using the attached piezoelectric z-stepper motor. The 633-nm laser line of an […] (set at 60% power) is used to excite the dye. Light emission at 650 nm is detected and found to correlate directly with the dye concentrations in the cells. For comparative studies, the exposure time and laser intensity are kept identical for accurate intensity measurements. Pixel intensity is quantified using Metamorph 6.1 (Universal Imaging), and the mean pixel intensity is generated as gray level using the Region Statistics feature on the software. […]

[2] = tested on: human prostate tumors (22Rv1 cells); test: Human prostate tumor model, subcutaneous 22Rv1 tumors in nude mice; type: in vivo, athymic nude mice
Procedure: Example 4 A/B: Human cancer cells are subcutaneously (s.c.) implanted (1×10^6) into 4- to 6-week-old athymic nude mice (National Cancer Institute). When tumor sizes in the mice reach between 1 and 6 mm in diameter as assessed by in vivo bioluminescence imaging or by palpation, mice are injected once or multiple times i.p. with the drug, e.g. DZ3a, DHA or o THAD. For mice bearing 22Rv1 tumors, DZ3a (2, 4, 8 and 16 mg/kg) or DHA (e.g. 4.7 mg/kg) is injected twice a week for 5.5 weeks. Whole body optical imaging is taken at 24 hours or as indicated using a Kodak Imaging Station 4000 MM equipped with fluorescent filter sets (excitation/emission, 800:850 nm), with a field of view of 120 mm in diameter, a frequency rate for NIR excitation light of 2 mW/cm^2, and the following camera settings; maximal gain, 2-2 binning, 1,024×1,024 pixel resolution, exposure time of 5 seconds. Live mice are alternatively/additionally imaged by an Olympus OV100 Whole Mouse Imaging System (excitation, 762 nm; emission, 800 nm; Olympus Corp.), containing a MT-20 light source (Olympus Biosystems) and DP70 CCD camera (Olympus). Before imaging, mice are anesthetized with isoflurane (2.5 units), and maintained in an anesthetized state during imaging. Alternatively, a THAD may be compared to DZ3a. […]

MDVR cells = test: Monobromobimane (mBBr) staining, cellular GSH levels; type: cell-based, human; conditions: 8 h, listed as DZ-003
Procedure: Example 5G: Cancer cells (here MDVR) are treated with DZ1, DHA and/or a THAD (e.g. 6 uM each) for 8 h, followed by monobromobimane (mBBr) staining at 40 uM for 30 min at 37° C., and analyzed with flow cytometry to determine the cellular GSH levels. Flow cytometry analysis of mBBr fluorescence (green) is performed as described in example 5E above. Preliminary experiments indicate that the THAD as described herein may provide a similar or increased effect.

C[C@@H]1CC[C@H]2[C@@H](C)C(OC(=O)CCCCCN3/C(=C/C=C4\CCCC(/C=C/C5=[N+](CCCCS(=O)(=O)[O-])c6ccccc6C5(C)C)=C4Cl)C(C)(C)c4ccccc43)O[C@@H]3OC4(C)CC[C@@H]1[C@]32OO4 (stereo in doubt) [DZ3a]
mitochondrial membrane potential (JC-1 fluorescence) (C4-2 MDVR cells): induces depolarization of mitochondrial membrane potential
co-localization with mitochondria and lysosomes [1]: co-localizes with mitochondria and lysosomes; also recorded: exclusive targeting to mitochondria and lysosomes
inhibition of tumor volume increase ([2]; DZ-DHA-monoester 2 to 16 mg/kg, DHA 4.7 mg/kg, i.p. twice a week for 5.5 weeks, versus vehicle): similarly inhibit increase in tumor volume compared to the neg. control
tumor inhibition, lowest dose versus higher doses ([2]; about 2 mg/kg versus higher doses up to 16 mg/kg): shows better tumor inhibition than other higher doses
cellular GSH levels (mBBr fluorescence) (MDVR cells): decreases cellular antioxidant GSH levels; also recorded: Decreased cellular GSH levels
